The record followed here is PubChem BioAssay (NCI).

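1) Cells in 96-well plates. 2) Compound, 48 h, 5 concentrations. 3) Linear interpolation between surrounding doses. 4) Unreached endpoint = highest concentration. GI50: concentration for 50% inhibition of growth. Definition used: TGI = concentration required for complete inhibition of growth.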 Bounds are passed on as bounds.

Some test systems named below: SK-MEL-28 melanoma; CAKI-1 renal; HT29 colon; SNB-19 CNS; MOLT-4 leukemia; HL-60(TB) leukemia; M14 melanoma; OVCAR-4 ovarian; HCC-2998 colon.
Holding throughout (test): NCI anticancer screen, dose series, 48 h

As to `CC[O-].CC[O-].O=C1c2ccccc2C(=O)c2c(O)ccc([O-])c21.O=C1c2ccccc2C(=O)c2c(O)ccc([O-])c21.[Ti+4]`, the TGI in the assay with SK-MEL-28 melanoma, in the assay with CAKI-1 renal, in the assay with HT29 colon, in the assay with SNB-19 CNS, in the assay on MOLT-4 leukemia and with HL-60(TB) leukemia was more than 100 µM in each case. The TGI with M14 melanoma and with OVCAR-4 ovarian was more than 100 µM throughout.

Regarding `CC(C)(C)OC(=O)Cc1ccc2c(ccn2Cc2ccccc2)c1`, the TGI with SK-MEL-28 melanoma is more than 100 µM; in the assay with HCC-2998 colon it was more than 100 µM; in the assay with CAKI-1 renal, more than 100 µM; in the assay with HT29 colon, 36.4 µM; with SNB-19 CNS, more than 100 µM; in the assay on MOLT-4 leukemia, more than 100 µM. The TGI in the assay with HL-60(TB) leukemia, with M14 melanoma and in the assay on OVCAR-4 ovarian was more than 100 µM throughout.

`CC(C)=CCC/C(=C/CC/C(C)=C/CCc1ccoc1)C(=O)O`: the TGI with SK-MEL-28 melanoma, with HCC-2998 colon, in the assay on HT29 colon, in the assay on SNB-19 CNS, in the assay on MOLT-4 leukemia and in the assay with M14 melanoma was more than 100 µM throughout. The TGI in the assay on OVCAR-4 ovarian is more than 100 µM.

For the compound `CN(C)P(=O)(/C(N)=N/Nc1ccc([N+](=O)[O-])cc1)N(C)C`, the TGI in the assay with SK-MEL-28 melanoma, in the assay on HCC-2998 colon, in the assay on CAKI-1 renal, in the assay on SNB-19 CNS, in the assay on MOLT-4 leukemia and in the assay with HL-60(TB) leukemia was more than 100 µM in each case. Further, the TGI with M14 melanoma and in the assay on OVCAR-4 ovarian was more than 100 µM throughout.

For `O=C(O)CP(=S)(S)c1ccccc1` (stereo unspecified), the TGI in the assay with SK-MEL-28 melanoma, in the assay with CAKI-1 renal, with HT29 colon, in the assay with SNB-19 CNS, in the assay with MOLT-4 leukemia and in the assay on HL-60(TB) leukemia was more than 100 µM throughout. The TGI in the assay on M14 melanoma and with OVCAR-4 ovarian was more than 100 µM in each case.

For `CC(=O)[CH-]C(=O)c1ccccc1.CC(=O)[CH-]C(=O)c1ccccc1.O=C([O-])c1ccc([O-])cc1.O=C([O-])c1ccc([O-])cc1.[Ti+4]`, the GI50 in the assay on SK-MEL-28 melanoma was 41.6 µM; in the assay on HCC-2998 colon, 46.3 µM; with CAKI-1 renal it was 35.6 µM; in the assay with HT29 colon it was 51.2 µM; in the assay on SNB-19 CNS it was 52.3 µM; in the assay on MOLT-4 leukemia it was 23.8 µM. The GI50 in the assay with HL-60(TB) leukemia is 20.5 µM; with M14 melanoma, 40.2 µM; in the assay on OVCAR-4 ovarian, 57.1 µM. In addition, the TGI with SK-MEL-28 melanoma is more than 100 µM; with HCC-2998 colon, more than 100 µM; with CAKI-1 renal it was more than 100 µM; with HT29 colon it was more than 100 µM; with SNB-19 CNS it was more than 100 µM; with MOLT-4 leukemia, 79.3 µM. The TGI in the assay on HL-60(TB) leukemia was 67.6 µM; in the assay with M14 melanoma it was more than 100 µM; in the assay on OVCAR-4 ovarian, more than 100 µM.

For the compound `COC(=O)C1=NC(=S)NC(c2ccccc2)C1c1nc2ccccc2s1` (stereo unspecified), the TGI with SK-MEL-28 melanoma, in the assay on HCC-2998 colon, with CAKI-1 renal, in the assay on HT29 colon, in the assay with SNB-19 CNS and in the assay with MOLT-4 leukemia was more than 100 µM each time. The TGI in the assay with HL-60(TB) leukemia, in the assay on M14 melanoma and in the assay with OVCAR-4 ovarian was more than 100 µM in each case.

Turning to `Cc1ccc(Nc2nc3c(s2)C(=O)c2ccccc2C3=O)c(C)c1`, the TGI worked out at 31.1 µM with SK-MEL-28 melanoma; 31.8 µM in the assay with HCC-2998 colon; 29 µM with CAKI-1 renal; 48.3 µM in the assay on HT29 colon; 27.7 µM with SNB-19 CNS; 23.4 µM in the assay with MOLT-4 leukemia. The figures for the TGI with HL-60(TB) leukemia, with M14 melanoma and with OVCAR-4 ovarian were 6.02 µM, 28.9 µM and 25 µM, respectively.

In the case of `CCOC(=O)CN=c1nc(SC)sc2c(C(=O)OCC)nc(Sc3ccccc3)n12`, the TGI in the assay on HCC-2998 colon, in the assay with CAKI-1 renal, in the assay on HT29 colon, in the assay with HL-60(TB) leukemia, in the assay on M14 melanoma and in the assay on OVCAR-4 ovarian was more than 100 µM throughout.

For the compound `COC(=O)c1cccc2cccc(C(=O)Nc3ccc(C)cc3C)c12`, the TGI in the assay with SK-MEL-28 melanoma, with HCC-2998 colon, in the assay with CAKI-1 renal, in the assay on HT29 colon, in the assay on SNB-19 CNS and in the assay on MOLT-4 leukemia was more than 100 µM each time. Besides, the TGI in the assay on HL-60(TB) leukemia was 35 µM; in the assay with M14 melanoma, more than 100 µM; in the assay with OVCAR-4 ovarian it was more than 100 µM.

Take `Cn1cc(C(=O)c2ccccc2)ccc1=O`: the TGI with SK-MEL-28 melanoma, in the assay with HCC-2998 colon, with CAKI-1 renal, in the assay with HT29 colon, in the assay with SNB-19 CNS and in the assay on MOLT-4 leukemia was more than 100 µM throughout. Also, the TGI in the assay on HL-60(TB) leukemia, in the assay on M14 melanoma and in the assay on OVCAR-4 ovarian was more than 100 µM each time.

With `COc1ccc2c(c1)CCC1C3(CCCC21C)OCCO3` (stereo unspecified), the TGI was 35.3 µM in the assay on SK-MEL-28 melanoma; 44.3 µM in the assay on HCC-2998 colon; more than 100 µM in the assay on CAKI-1 renal; 33.5 µM in the assay on HT29 colon; more than 100 µM in the assay with SNB-19 CNS; 53.5 µM in the assay with MOLT-4 leukemia. The results for the TGI with HL-60(TB) leukemia, with M14 melanoma and in the assay with OVCAR-4 ovarian were 43.2 µM, 36.3 µM and more than 100 µM, respectively.

Regarding `CC(C)N(C(=O)C12CC3CC(CC(C3)C1)C2)C(C)C`, the TGI in the assay on SK-MEL-28 melanoma, in the assay with HCC-2998 colon, with CAKI-1 renal, with HT29 colon, with SNB-19 CNS and with MOLT-4 leukemia was more than 50 µM each time. The TGI in the assay on HL-60(TB) leukemia, with M14 melanoma and in the assay with OVCAR-4 ovarian was more than 50 µM in each case.

Turning to `Cc1ccc(N(C(=O)CC(=O)NN)C(=O)c2ccccc2Cl)cc1`, the TGI in the assay with SK-MEL-28 melanoma, with HCC-2998 colon, with CAKI-1 renal, in the assay on HT29 colon, with SNB-19 CNS and in the assay with MOLT-4 leukemia was more than 100 µM in each case. Also, the TGI in the assay with HL-60(TB) leukemia, in the assay with M14 melanoma and in the assay with OVCAR-4 ovarian was more than 100 µM each time.

As to `COc1ccc2c(c1)C=C([N+](=O)[O-])C(C1OC(C)(C)OC1C1COC(C)(C)O1)O2` (stereo unspecified), the TGI with SK-MEL-28 melanoma is 3.83 µM; in the assay with HCC-2998 colon it was 27.7 µM; with CAKI-1 renal it was 13.9 µM; in the assay on HT29 colon it was 4.34 µM; in the assay on SNB-19 CNS, 25.7 µM; in the assay on MOLT-4 leukemia, 6.51 µM. The TGI in the assay on HL-60(TB) leukemia stood at 5.49 µM; in the assay on M14 melanoma, 6.15 µM; in the assay on OVCAR-4 ovarian, 21.3 µM.
